# Source: PMC10108353, “Design and Pharmacological Characterization of α4β1 Integrin Cyclopeptide Agonists: Computational Investigation of Ligand Determinants for Agonism versus Antagonism” (Journal of Medicinal Chemistry, 2023)
# Columns and labels:
# [1] = biological target: αMβ2 integrin (Homo sapiens, UniProt P05107+P11215); assay: HL60 cell adhesion to fibrinogen (Fg); format: cell-based; details: read-out: IC50 for antagonists, Fg/HL60 αMβ2
# Description: mediated Jurkat cell adhesion to FN.
# [2] = biological target: T1, α4β7 integrin (Homo sapiens, UniProt P13612+P26010); details: purified integrin; read-out: Binding affinity IC50, α4β7/MAdCAM-1
# T1 construct: purchased R&D Systems
# T1 sequence (P13612 34-970 limits assumed): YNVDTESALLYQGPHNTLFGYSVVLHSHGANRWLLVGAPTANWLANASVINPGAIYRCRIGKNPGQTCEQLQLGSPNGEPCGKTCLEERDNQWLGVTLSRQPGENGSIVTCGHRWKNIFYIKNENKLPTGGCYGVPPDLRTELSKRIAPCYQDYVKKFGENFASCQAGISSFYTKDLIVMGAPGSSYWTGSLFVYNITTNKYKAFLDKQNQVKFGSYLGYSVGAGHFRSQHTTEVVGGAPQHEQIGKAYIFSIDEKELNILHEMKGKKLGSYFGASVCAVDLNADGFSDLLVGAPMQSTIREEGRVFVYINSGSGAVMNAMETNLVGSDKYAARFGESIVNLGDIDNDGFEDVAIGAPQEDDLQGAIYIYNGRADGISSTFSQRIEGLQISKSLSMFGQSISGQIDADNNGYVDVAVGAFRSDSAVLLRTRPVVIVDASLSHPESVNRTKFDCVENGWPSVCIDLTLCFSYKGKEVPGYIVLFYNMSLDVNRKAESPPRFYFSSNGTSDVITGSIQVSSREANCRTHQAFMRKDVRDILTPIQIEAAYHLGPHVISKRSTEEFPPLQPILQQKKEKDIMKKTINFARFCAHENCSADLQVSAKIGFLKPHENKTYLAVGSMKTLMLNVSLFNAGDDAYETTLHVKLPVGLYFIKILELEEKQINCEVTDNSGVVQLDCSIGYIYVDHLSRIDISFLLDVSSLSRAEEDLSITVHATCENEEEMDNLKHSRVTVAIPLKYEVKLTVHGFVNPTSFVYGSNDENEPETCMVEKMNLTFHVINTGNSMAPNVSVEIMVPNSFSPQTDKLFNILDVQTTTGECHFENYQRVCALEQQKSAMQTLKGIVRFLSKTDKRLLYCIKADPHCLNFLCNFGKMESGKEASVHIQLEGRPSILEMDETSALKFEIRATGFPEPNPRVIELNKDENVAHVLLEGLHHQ
# T1 sequence (P26010 20-723 limits assumed): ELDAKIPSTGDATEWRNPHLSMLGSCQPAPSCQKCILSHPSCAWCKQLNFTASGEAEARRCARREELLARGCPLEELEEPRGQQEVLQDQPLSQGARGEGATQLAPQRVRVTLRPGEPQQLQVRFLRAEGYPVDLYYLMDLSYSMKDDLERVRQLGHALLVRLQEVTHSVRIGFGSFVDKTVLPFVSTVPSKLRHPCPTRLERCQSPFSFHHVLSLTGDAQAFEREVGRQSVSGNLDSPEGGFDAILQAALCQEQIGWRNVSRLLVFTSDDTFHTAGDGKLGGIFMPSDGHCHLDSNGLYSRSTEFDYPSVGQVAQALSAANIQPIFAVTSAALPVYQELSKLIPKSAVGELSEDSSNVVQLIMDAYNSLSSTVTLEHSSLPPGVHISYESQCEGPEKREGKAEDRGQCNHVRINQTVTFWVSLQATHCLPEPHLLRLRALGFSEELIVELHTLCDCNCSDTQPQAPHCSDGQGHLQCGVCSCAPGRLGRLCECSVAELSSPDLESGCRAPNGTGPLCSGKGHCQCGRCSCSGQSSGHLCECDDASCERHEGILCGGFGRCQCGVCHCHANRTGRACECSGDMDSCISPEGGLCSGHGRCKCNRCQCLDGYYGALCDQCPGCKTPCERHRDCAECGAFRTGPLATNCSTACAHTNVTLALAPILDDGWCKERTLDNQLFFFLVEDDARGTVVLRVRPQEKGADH
# Method: (§1) For the evaluation of binding affinity to purified α4β1, αMβ2, and α4β7 integrins, competitive solid-phase ligand binding assays were performed as follows. […] Afterward, each well was washed and blocked for 1 h at RT. Purified integrins (α4β1: 0.5 μg/mL; α4β7: 0.5 μg/mL; αMβ2: 0.5 μg/mL; R&D Systems) were preincubated with serial dilutions of new compounds (10^–4 – 10^–10 M) for 30 min at RT and then plated into coated wells for 1 h at RT. After two washes, primary antibody (for α4β1 and α4β7: rabbit anti-α4, Abcam, 1:100 dilution; for αMβ2: rabbit anti-αM, Abcam, 1:100 dilution) was added and incubated for 1 h at RT. The plate was washed twice and then was incubated with anti-rabbit AlexaFluor488 secondary antibody (1:400 dilution, ThermoFischer Scientific) for 1 h at RT. After washing three times, fluorescence was measured as described in the previous section.
# [3] = biological target: T2, α5β1 integrin (Homo sapiens, UniProt P05556+P08648); assay: Competitive solid-phase binding assay, purified α5β1 / FN; details: read-out: Binding affinity IC50, α5β1/FN
# Method: Solid-phase ligand binding assays on purified integrin were conducted as previously described[34] with the following modifications. […] The following day, wells were blocked with TSB buffer (20 mM Tris-HCl, 150 mM NaCl, 1 mM CaCl2, 1 mM MgCl2, 1 mM MnCl2, pH 7.5, 1% BSA) for 1 h at room temperature. Purified α5β1 (10 μg/mL) or αLβ2 (7 μg/mL) was incubated with the new synthesized compounds, at different concentrations (10^–4 to 10^–10 M), in coated wells for 1 h at RT. Then, after three washes with PBST buffer, primary antibody (anti-α5β1, BD Bioscience, 1:100 dilution or anti-αL, Abcam, 1:200 dilution) was added for 1 h at RT. Then antirabbit AlexaFluor488-secondary antibody (ThermoFisher Scientific, 1:400 dilution) was added after three washes with PBST buffer and incubated 1 h at room temperature.
# [4] = biological target: T3, α4β1 integrin (Homo sapiens, UniProt P05556+P13612); assay: Competitive solid-phase binding assay, purified α4β1 / FN; set-up: purchased R&D Systems; details: mean ± SD, three experiments in triplicate, read-out: Binding affinity IC50, α4β1/FN
# Method: as §1
# [5] = biological target: T3, α4β1 integrin; assay: Jurkat E6.1 cell adhesion to VCAM-1
# [6] = biological target: T2, α5β1 integrin; assay: K562 cell adhesion to FN
# [7] = agonist = adhesion index >1, antagonist = adhesion index <1
SMILES,IC50 [1],IC50 [2],IC50 [3],IC50 [4],"agonist or antagonist behaviour, VCAM-1/Jurkat E6.1 α4β1 [5, 7]","EC50 ([5]; read-out: EC50 for agonists, VCAM-1/Jurkat E6.1 α4β1, increase of cell adhesion, mean ± SD)","agonist or antagonist behaviour, FN/K562 α5β1 [6, 7]","EC50 ([6]; read-out: EC50 for agonists, FN/K562 α5β1, increase of cell adhesion, mean ± SD)"
Cc1ccccc1NC(=O)N1C(=O)CC1CC(=O)O (stereo not drawn) [1a],> 5000 nM,> 5000 nM,> 5000 nM,13.3 ± 6.3 nM,agonist,13 ± 0.8 nM,,
Cc1ccccc1NC(=O)N1C(=O)CC1CC(=O)NCC(=O)O (stereo not drawn) [1b],> 5000 nM,> 5000 nM,49 ± 7 nM,> 5000 nM,,,agonist,9.7 ± 0.5 nM
